Measured values: patent publication US20170342451A1, “BIOSYNTHESIS OF PACLITAXEL INTERMEDIATE” (Board of Trustees of Michigan State University, priority 2012, published 2017)

What was measured:
TycA-S563A = TycA-S563A (Brevibacillus parabrevis, UniProt P09095, S563A); conditions: CoA with (S)-α-Phe as cosubstrate; for kcat^CoA: turnover with CoA at apparent saturation
Protocol: Under steady-state conditions, (S)-α-phenylalanine, (R)-β-phenylalanine, and (2R,3S)-phenylisoserine at 5, 10, 20, 40, 80, 160, 250, 500, 1000 and 2000 μM were separately incubated with TycA or TycA-S563A (20 μg) for 30 min. At the end of each reaction, and prior to mass spectrometry analysis, acetyl CoA (1 μM) was added as the internal standard to each sample to correct for variations of the analyte. The products of the enzyme-catalyzed reaction were quantified by a liquid chromatography multiple reaction monitoring (LC-ESI-MRM) mass spectrometry technique (Anderson & Hunter, Mol. Cell. Proteomics 5: 573-588 (2006)) on the Quattro-Premier Electro-Spray Mass Spectrometer coupled with Acquity® UPLC system fitted with a C18 Ascentis Express column (2.5×50 mm, 2.7 μm) at 30° C. An aliquot (5 μL) of each sample was loaded onto the column and the analytes were eluted with a solvent gradient of acetonitrile (Solvent A) in 0.05% triethylamine in distilled water (Solvent B). Elution was held at 2.5% Solvent A for 3.17 min, increased to 100% Solvent A over 5 sec with a 2-min hold, and then returned to 2.5% Solvent A over 5 sec with a 50-sec hold. The flow rate employed was 0.4 mL/min. The effluent from the chromatography column was directed to the mass spectrometer where the first quadrupole mass analyzer (in negative ion mode) was set to select for the molecular ion of a biosynthesized acyl CoA product. […]
The KM values of TycA and TycA-S563A for CoA were assessed by incubating each enzyme separately with (S)-α-phenylalanine (1 mM), MgCl2 (3 mM), ATP (1 mM), and CoA at 0.05, 0.1, 0.2, 0.4, 0.8, 1.6, 3.2, 6.4, 12.8 and 25.6 mM at 31° C. for 20 min. […] The products of the enzyme-catalyzed reaction were quantified by LC-ESI-MRM, and the monitored fragment ion (m/z 408) derived from the CoA moiety of the thioester analytes in the effluent was quantified identically to the procedure described earlier herein.

TycA = target: T1, TycA (Brevibacillus parabrevis, UniProt P09095); test: CoA ligase reaction kinetics, TycA; format: biochemical, Brevibacillus brevis; conditions: for kcat^CoA: turnover with CoA at apparent saturation
T1 construct: this wild-type tycA cDNA encoding the A-, T-, and E-domains was subcloned into a pSU18 vector; made in house; host or cells: Escherichia coli BL21(DE3)
T1 sequence (P09095 with tags, fused parts or gaps): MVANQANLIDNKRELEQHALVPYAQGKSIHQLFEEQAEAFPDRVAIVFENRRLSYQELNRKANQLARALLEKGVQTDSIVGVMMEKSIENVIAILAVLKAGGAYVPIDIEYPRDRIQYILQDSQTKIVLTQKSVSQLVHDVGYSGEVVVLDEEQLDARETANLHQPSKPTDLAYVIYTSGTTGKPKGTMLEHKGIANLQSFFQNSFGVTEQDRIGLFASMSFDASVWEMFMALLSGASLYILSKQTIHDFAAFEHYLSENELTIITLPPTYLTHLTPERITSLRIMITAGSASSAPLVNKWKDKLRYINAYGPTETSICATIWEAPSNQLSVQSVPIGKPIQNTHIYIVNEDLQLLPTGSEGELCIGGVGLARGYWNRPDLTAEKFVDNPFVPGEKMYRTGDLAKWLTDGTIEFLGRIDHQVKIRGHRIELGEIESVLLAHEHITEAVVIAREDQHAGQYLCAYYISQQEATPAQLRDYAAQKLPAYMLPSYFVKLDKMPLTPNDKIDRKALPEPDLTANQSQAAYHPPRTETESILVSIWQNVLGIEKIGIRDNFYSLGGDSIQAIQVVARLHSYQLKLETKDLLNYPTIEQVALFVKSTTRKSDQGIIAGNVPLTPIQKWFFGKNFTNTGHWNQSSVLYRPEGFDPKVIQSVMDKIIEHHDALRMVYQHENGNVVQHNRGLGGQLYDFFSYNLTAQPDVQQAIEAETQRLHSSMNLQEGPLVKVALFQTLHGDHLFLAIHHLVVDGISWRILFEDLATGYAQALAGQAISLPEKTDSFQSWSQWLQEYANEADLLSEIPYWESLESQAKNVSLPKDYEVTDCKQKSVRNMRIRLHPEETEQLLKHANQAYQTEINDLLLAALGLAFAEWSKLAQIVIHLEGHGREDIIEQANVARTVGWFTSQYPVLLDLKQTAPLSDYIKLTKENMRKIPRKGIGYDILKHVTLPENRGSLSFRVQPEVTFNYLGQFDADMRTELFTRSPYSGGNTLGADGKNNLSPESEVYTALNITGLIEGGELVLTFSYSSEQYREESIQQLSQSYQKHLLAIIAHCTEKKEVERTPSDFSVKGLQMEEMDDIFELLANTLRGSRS
Protocol: Under steady-state conditions, (S)-α-phenylalanine, (R)-β-phenylalanine, and (2R,3S)-phenylisoserine at 5, 10, 20, 40, 80, 160, 250, 500, 1000 and 2000 μM were separately incubated with TycA or TycA-S563A (20 μg) for 30 min. At the end of each reaction, and prior to mass spectrometry analysis, acetyl CoA (1 μM) was added as the internal standard to each sample to correct for variations of the analyte. The products of the enzyme-catalyzed reaction were quantified by a liquid chromatography multiple reaction monitoring (LC-ESI-MRM) mass spectrometry technique (Anderson & Hunter, Mol. Cell. Proteomics 5: 573-588 (2006)) on the Quattro-Premier Electro-Spray Mass Spectrometer coupled with Acquity® UPLC system fitted with a C18 Ascentis Express column (2.5×50 mm, 2.7 μm) at 30° C. An aliquot (5 μL) of each sample was loaded onto the column and the analytes were eluted with a solvent gradient of acetonitrile (Solvent A) in 0.05% triethylamine in distilled water (Solvent B). Elution was held at 2.5% Solvent A for 3.17 min, increased to 100% Solvent A over 5 sec with a 2-min hold, and then returned to 2.5% Solvent A over 5 sec with a 50-sec hold. The flow rate employed was 0.4 mL/min. The effluent from the chromatography column was directed to the mass spectrometer where the first quadrupole mass analyzer (in negative ion mode) was set to select for the molecular ion of a biosynthesized acyl CoA product. The selected ion was then directed to a collision gas chamber where the collision energy was optimized to maximize the abundance of a single signature fragment ion (m/z 408, characteristic of acyl CoA thioesters) resolved in the second quadrupole mass analyzer by the MRM method. The peak area under the curve of fragment ion m/z 408 for each biosynthetic phenylpropionyl CoA thioester was converted to concentration by comparing the peak area of the same ion produced by authentic CoA (at 0.05, 0.1, 0.2, 0.4, 0.8, 1.6, 3.2, 6.4, 12.5, 25, 50, 100 μM) using linear regression analysis.
The KM values of TycA and TycA-S563A for CoA were assessed by incubating each enzyme separately with (S)-α-phenylalanine (1 mM), MgCl2 (3 mM), ATP (1 mM), and CoA at 0.05, 0.1, 0.2, 0.4, 0.8, 1.6, 3.2, 6.4, 12.8 and 25.6 mM at 31° C. for 20 min. At the end of each reaction and prior to mass spectrometry analysis, acetyl CoA (1 μM) was added as the internal standard to each sample to correct for variations of the analyte. The products of the enzyme-catalyzed reaction were quantified by LC-ESI-MRM, and the monitored fragment ion (m/z 408) derived from the CoA moiety of the thioester analytes in the effluent was quantified identically to the procedure described earlier herein.

[1] = TycA, CoA with (S)-α-Phe as cosubstrate

SMILES | Km (TycA-S563A; CoA 1 mM, ATP 1 mM, MgCl2 3 mM, 31° C.) [µM] | kcat^CoA (TycA-S563A) [s⁻¹] | Km (TycA; TycA, CoA 1 mM, ATP 1 mM, MgCl2 3 mM, 31° C., CoA with (S)-α-Phe as cosubstrate) [µM] | kcat^CoA (TycA; [1]) [s⁻¹] | catalytic preference of TycA, higher than for (2R,3S)-Phenylisoserine (TycA; TycA with CoA) [fold] | catalytic preference of TycA, higher than for (S)-α-Phe (TycA; TycA with CoA) [fold]
N[C@@H](c1ccccc1)[C@@H](O)C(=O)O [(2R,3S)-PheIso, (2R,3S)-phenylisoserine] | 191 ± 10 | 0.00717 ± 0.00017 | 89.3 ± 15 | 0.00417 ± 0.00033 |  | 
N[C@H](CC(=O)O)c1ccccc1 [(R)-β-Phe, (R)-β-phenylalanine] |  | 0.05 ± 0.00067 |  | 0.0267 ± 0.005 | 10 | 5
